ChEMBL document CHEMBL1133261, “Synthesis and biological evaluation of 1,3,4-triaryl-3-pyrrolin-2-ones, a new class of selective cyclooxygenase-2 inhibitors” (Bioorg Med Chem Lett, 2000)
pIC50: −log10 of the molar value.

Biological target: Prostaglandin G/H synthase 1 (Homo sapiens, UniProt P23219)
Assay: Biochemical index for Prostaglandin G/H synthase 1 measured as, thromboxane 2 (TXB2) levels following blood coagulation
Type: tissue-based

Sequence of Prostaglandin G/H synthase 1 (P23219 whole entry): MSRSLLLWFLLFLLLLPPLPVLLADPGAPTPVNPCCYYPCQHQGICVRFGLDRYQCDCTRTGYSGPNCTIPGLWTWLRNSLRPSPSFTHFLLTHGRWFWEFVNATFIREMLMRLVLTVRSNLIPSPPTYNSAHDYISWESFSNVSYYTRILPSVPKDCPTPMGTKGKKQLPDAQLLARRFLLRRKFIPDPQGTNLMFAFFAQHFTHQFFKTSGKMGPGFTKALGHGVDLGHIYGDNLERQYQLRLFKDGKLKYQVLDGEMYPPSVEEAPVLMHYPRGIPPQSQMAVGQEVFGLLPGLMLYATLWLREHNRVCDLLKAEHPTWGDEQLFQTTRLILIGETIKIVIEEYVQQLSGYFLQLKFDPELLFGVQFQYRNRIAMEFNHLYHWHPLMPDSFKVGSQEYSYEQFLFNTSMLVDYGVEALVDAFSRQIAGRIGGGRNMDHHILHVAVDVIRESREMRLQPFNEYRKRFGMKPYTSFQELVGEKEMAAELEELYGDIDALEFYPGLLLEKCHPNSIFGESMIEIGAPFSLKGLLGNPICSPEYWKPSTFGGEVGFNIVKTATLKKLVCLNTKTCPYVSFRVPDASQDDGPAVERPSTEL

SMILES	pIC50
Cc1ccc(N2CC(c3ccc(S(C)(=O)=O)cc3)=C(c3ccc(F)cc3)C2=O)cc1	5.43
CS(=O)(=O)c1ccc(C2=C(c3ccccc3)C(=O)N(c3ccc(C(F)(F)F)cc3)C2)cc1	5.29
CS(=O)(=O)c1ccc(C2=C(c3ccccc3)C(=O)N(c3ccccc3F)C2)cc1	4.97
CS(=O)(=O)c1ccc(C2=C(c3ccc(F)c(F)c3)C(=O)N(c3ccccc3)C2)cc1	5.09
COc1ccccc1N1CC(c2ccc(S(C)(=O)=O)cc2)=C(c2ccc(F)cc2)C1=O	5.40
CS(=O)(=O)c1ccc(C2=C(c3ccccc3)C(=O)N(c3ccc(F)cc3)C2)cc1	5.23
Cc1ccc(N2CC(c3ccc(S(C)(=O)=O)cc3)=C(c3ccccc3)C2=O)cc1	5.16
CS(=O)(=O)c1ccc(C2=C(c3ccc(F)cc3)C(=O)N(c3ccc(C(F)(F)F)cc3)C2)cc1	5.14
CS(=O)(=O)c1ccc(C2=C(c3ccccc3)C(=O)N(c3cccc(Cl)c3)C2)cc1	5.01
COc1ccc(N2CC(c3ccc(S(C)(=O)=O)cc3)=C(c3ccc(F)cc3)C2=O)cc1	5.28

Now those with a higher pIC50, led by results:

pIC50	SMILES
5.57	CS(=O)(=O)c1ccc(C2=C(c3ccc(F)cc3)C(=O)N(c3ccccc3)C2)cc1
5.57	COc1ccc(C2=C(c3ccc(S(C)(=O)=O)cc3)CN(c3ccccc3)C2=O)cc1
5.60	CS(=O)(=O)c1ccc(C2=C(c3ccc(F)cc3)C(=O)N(c3ccccc3F)C2)cc1
5.60	COc1ccc(C2=C(c3ccc(S(C)(=O)=O)cc3)CN(c3cccc(F)c3)C2=O)cc1
5.60	COc1ccc(C2=C(c3ccc(S(C)(=O)=O)cc3)CN(c3ccc(F)cc3)C2=O)cc1
5.64	COc1ccc(C2=C(c3ccc(S(C)(=O)=O)cc3)CN(c3ccccc3Cl)C2=O)cc1
5.62	CS(=O)(=O)c1ccc(C2=C(c3ccccc3)C(=O)N(c3ccccc3)C2)cc1
